{"source": "patent US20050181457A1", "about": "“FcyrIII signaling inhibitor assay” (priority 2002, published 2005)", "system": "FcγRIII signaling", "assay": "FcγRIII signaling inhibitor assay: IgG2a-complex stimulated DC18 C10 cells, hTNFα promoter-luciferase reporter", "assay_type": "cell-based, mouse", "settings": "DC18 C10 cells stimulated with IgG2a complexes; inhibitor at its described IC50 concentration; FIG. 3", "procedure": "Cells are transfected by electroporation at optimised conditions (200V, 960 pF) with a TNFα promoter—luciferase—TNFα 3′ end construct and plated in 10 ml of medium immediately after electroporation and purified by Lymphoprep the next day. 1×10^4 viable cells per well are plated in 96 well microtiter plates in 100 μl of medium each plus 250 μg/ml of geneticin (G418). Two days later 100 μl of fresh medium are added. Every second day 100 μl of medium are removed and substituted by 100 μl of fresh medium. Stable clones are selected by conventional cell culture methods and single cell cloning. […] The best responder is subjected to one round of further limited dilution cloning (single cell cloning) and named DC18 clone10 (=DC18 C10). This clone is selected for all further studies.\n1×10^4 cells are seeded in 50 μl medium per well (Optiplate, Packard). Incubation with candidate compounds is done for 45 minutes prior to stimulation with 5 μg/ml of murine IgG of different subtypes complexed either with 10 μg/ml of DNP-BSA or 30 μg/ml of rabbit anti mouse Ig F(ab′)2 fragments. Stimulation is carried on for further 4 hours. Subsequently 13 μl of a 5 times concentrated reporter lysis buffer (Promega) are added and cells are lysed by freeze-(−80°) thaw cycle. For the readout 50 μl of luciferase substrate (Promega) are added and luciferase activity is measured in a MicroBetaJet (Wallac). […]"}
{"smiles": "O=c1cc(-c2ccc(O)cc2)oc2cc(O)cc(O)c12", "note": "[Apigenin]", "values": [{"measurement": "inhibition of IgG2a complexes-provoked luciferase induction (readout)", "result": "inhibits IgG2a complexes-provoked luciferase induction"}]}
